Test results as given in patent US11426397B2, “Piperidinyl- and piperazinyl-substituted heteroaromatic carboxamides as modulators of GPR6” (TAKEDA PHARMACEUTICAL COMPANY LIMITED, priority 2017, dated 2022).

molecular target: T1, GPR6 receptor expressed in CHO-K1 cells (Homo sapiens, UniProt P46095); test: In vitro inhibition of cAMP (EC50), cell-based HTRF cAMP assay; conditions: inhibition of constitutive cAMP activity of GPR6 in CHO-K1 cells
T1 construct: expressed in transfected cells
Protocol: I. In Vitro Inhibition of cAMP (EC50)
This cell based assay measures the ability of test compounds to inhibit the constitutive cAMP activity of GPR6 receptor expressed in CHO-K1 cells. CHO cells are stably expressed with GPR6 receptor, whose expression is controlled by a tetracycline inducible element. The cells were cultured in medium containing F12K, 10% FBS, 1% Penn/Strep, 200 μg/mL Hygromycin. GPR6 receptor expression is induced for 20 hours with 2 μg/mL doxycycline (Sigma D9891) in growth media. After addition of doxycycline, the cells are plated at a density of 450-750 cells per well in 96-well half-volume black tissue culture plates (Costar) and placed in an incubator (37° C., 5% CO2) for 20 hours prior to cAMP assays.
Culture media is removed from the cells and they are washed with 50 μL/well of Ringer's Buffer (MgCl2 0.047 mg/mL, NaH2PO4 0.18 mg/mL, Na2HPO4 0.1 mg/mL, KCl 0.34 mg/mL, NaHCO3 1.26 mg/mL, D-glucose 1.8 mg/mL, NaCl 7 mg/mL; pH=7.4). The test compounds are suspended in DMSO, diluted in Ringer's Buffer containing 0.5% fatty acid free BSA plus 300 μM IBMX, and incubated on the cells for 45 minutes at 37° C. and 5% CO2. After incubation, the cells are conditioned for 10 minutes at room temp with Eu-cAMP tracer solution from a Perkin Elmer Lance HTRF Ultra cAMP assay kit (TRF0263). Then ULight™-anti-cAMP solution from the Lance HTRF kit is added and incubated on a shaker at room temp for 1 hour prior to HTRF detection in a Perkin Elmer Envision plate reader. EC50 curves are generated with a four-parameter logistic equation using GraphPad Prism 5.03.
Table 1 lists biological assay data (in vitro inhibition of cAMP) for some of the compounds shown in the examples, where larger pEC50 values represent higher activity or potency. All of the compounds shown in Table 1 were tested in accordance with a cell-based assay which measures the ability of test compounds to inhibit the constitutive cAMP activity of GPR6 receptor expressed in CHO-K1 cells (reported as pEC50). The assay is described in the specification under the heading “In vitro inhibition of cAMP (EC50).”

T1 sequence (P46095 whole entry): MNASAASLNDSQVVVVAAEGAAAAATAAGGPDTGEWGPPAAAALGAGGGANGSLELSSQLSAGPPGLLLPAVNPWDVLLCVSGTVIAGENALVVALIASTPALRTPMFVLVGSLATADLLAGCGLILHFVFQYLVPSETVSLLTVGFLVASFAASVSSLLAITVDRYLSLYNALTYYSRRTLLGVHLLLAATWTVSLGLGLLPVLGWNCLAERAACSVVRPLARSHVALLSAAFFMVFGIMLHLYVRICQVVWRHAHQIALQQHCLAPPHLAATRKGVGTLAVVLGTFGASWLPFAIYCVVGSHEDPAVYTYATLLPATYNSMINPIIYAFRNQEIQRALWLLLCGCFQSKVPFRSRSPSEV

Row | Structure (SMILES) | pEC50, in vitro inhibition of cAMP
1 | COc1nn(C)cc1C(=O)Nc1cc(C#N)cnc1N1CCN(Cc2ccc(F)c(C#N)c2)CC1 [Example 154, N-(5-cyano-2-(4-(3-cyano-4-fluorobenzyl)piperazin-1-yl)pyridin-3-yl)-3-methoxy-1-methyl-1H-pyrazole-4-carbonamide] | 6.5
2 | COc1nn(C)cc1C(=O)Nc1cc(C#N)cnc1N1CCN(Cc2ccc(C#N)cc2)CC1 [Example 153, N-(5-cyano-2-(4-(4-cyanobenzyl)piperazin-1-yl)pyridin-3-yl)-3-methoxy-1-methyl-1H-pyrazole-4-carboxamide] | 6.4
3 | COc1cccc(F)c1C(=O)Nc1cc(S(C)(=O)=O)ccc1N1CCC(Oc2ccc(F)cc2F)CC1 [Example 11] | 6.7
4 | COc1c(C(=O)Nc2ccc(C)nc2N2CCN(Cc3ccc(F)cc3)CC2)cnn1C [Example 103, N-(2-(4-(4-fluorobenzyl)piperazin-1-yl)-6-methylpyridin-3-yl)-5-methoxy-1-methyl-1H-pyrazole-4-carboxamide] | 6.5
5 | COc1nn(C)cc1C(=O)Nc1cc(C#N)cnc1N1CCN(Cc2c(F)cc(F)cc2F)CC1 [Example 173, N-(5-cyano-2-(4-(2,4,6-trifluorobenzyl)piperazin-1-yl)pyridin-3-yl)-3-methoxy-1-methyl-1H-pyrazole-4-carboxamide] | 6.8
6 | O=C(Nc1ccc2nccnc2c1N1CCC(Oc2ccc(F)cc2F)CC1)c1ccccn1 [Example 150, N-(5-(4-(2,4-difluorophenoxy)piperidin-1-yl)quinoxalin-6-yl)picolinamide] | <5.7
7 | COc1ncccc1C(=O)Nc1cc(C#N)ccc1N1CCN(C(=O)c2ccc(Cl)cc2)CC1 [Example 285, N-(2-(4-(4-chlorobenzoyl)piperazin-1-yl)-5-cyanophenyl)-2-methoxynicotinamide] | 6.9
8 | COc1ncccc1C(=O)Nc1cc(C#N)ccc1N1CCN(Cc2ccc(F)cc2)CC1 [Example 91, N-(5-cyano-2-(4-(4-fluorobenzyl)piperazin-1-yl)phenyl)-2-methoxynicotinamide] | 7.1
9 | COc1ccc(CC2CCN(c3ccc(C#N)cc3NC(=O)c3cccn(C)c3=O)CC2)c(F)c1 [Example 90, N-(5-cyano-2-(4-(2-fluoro-4-methoxybenzyl)piperidin-1-yl)phenyl)-1-methyl-2-oxo-1,2-dihydropyridine-3-carboxamide] | 7.2
10 | COc1nn(C)cc1C(=O)Nc1cc(C#N)cnc1N1CCN(Cc2ccccc2OC(F)F)CC1 [Example 163, N-(5-cyano-2-(4-(2-(difluoromethoxy)benzyl)piperazin-1-yl)pyridin-3-yl)-3-methoxy-1-methyl-1H-pyrazole-4-carboxamide] | 6.7
11 | COCCCn1cccc(C(=O)Nc2cc(C#N)ccc2N2CCC(Oc3ccc(F)cc3F)CC2)c1=O [Example 199] | 5.9

Next, values leading:

Row | pEC50, in vitro inhibition of cAMP | Structure (SMILES)
12 | 7.0 | COc1cnccc1C(=O)Nc1cc(C#N)ccc1N1CCC(Oc2ccc(F)cc2F)CC1 [Example 25, N-(5-cyano-2-(4-(2,4-difluorophenoxy)piperidin-1-yl)phenyl)-3-methoxyisonicotinamide]
13 | 6.1 | Cc1ocnc1C(=O)Nc1cc(C#N)ccc1N1CCC(Oc2ccc(F)cc2F)CC1 [Example 127, N-(5-cyano-2-(4-(2,4-difluorophenoxy)piperidin-1-yl)phenyl)-5-methyloxazole-4-carboxamide]
14 | 7.2 | COc1cc(Cl)ccc1C(=O)Nc1cc(C#N)ccc1N1CCC(Oc2ccc(F)cc2F)CC1 [Example 228, 4-chloro-N-(5-cyano-2-(4-(2,4-difluorophenoxy)piperidin-1-yl)phenyl)-2-methoxybenzamide]
15 | 6.9 | Cc1cc(C(=O)Nc2cc(C#N)ccc2N2CCC(Oc3ccc(F)cc3F)CC2)nn1C [Example 113, N-(5-cyano-2-(4-(2,4-difluorophenoxy)piperidin-1-yl)phenyl)-1,5-dimethyl-1H-pyrazole-3-carboxamide]
16 | 7.0 | COc1cc(Br)ccc1C(=O)Nc1cc(C#N)ccc1N1CCC(Oc2ccc(F)cc2F)CC1 [Example 226, 4-bromo-N-(5-cyano-2-(4-(2,4-difluorophenoxy)piperidin-1-yl)phenyl)-2-methoxybenzamide]
17 | 6.9 | COc1nccc(C(=O)Nc2cc(C#N)ccc2N2CCC(Oc3ccc(F)cc3F)CC2)n1 [Example 144]
18 | 6.8 | COc1ncccc1C(=O)Nc1cnccc1N1CCC(Oc2ccc(F)cc2F)CC1 [Example 264]
19 | 6.6 | Cn1cnc(C(=O)Nc2cc(C#N)ccc2N2CCC(Oc3ccc(F)cc3F)CC2)c1 [Example 45, N-(5-cyano-2-(4-(2,4-difluorophenoxy)piperidin-1-yl)phenyl)-1-methyl-1H-imidazole-4-carboxamide]
20 | 6.4 | N#Cc1ccc(N2CCC(Oc3ccc(F)cc3F)CC2)c(NC(=O)c2cscn2)c1 [Example 112, N-(5-cyano-2-(4-(2,4-difluorophenoxy)piperidin-1-yl)phenyl)thiazole-4-carboxamide]
21 | 6.3 | COc1ccc(OC(F)(F)F)cc1C(=O)Nc1cc(C#N)ccc1N1CCC(Oc2ccc(F)cc2F)CC1 [Example 231, N-(5-cyano-2-(4-(2,4-difluorophenoxy)piperidin-1-yl)phenyl)-2-methoxy-5-(trifluoromethoxy)benzamide]
22 | 5.6 | Cc1nnc(C(=O)Nc2cc(C#N)ccc2N2CCC(Oc3ccc(F)cc3F)CC2)o1 [Example 132, N-(5-cyano-2-(4-(2,4-difluorophenoxy)piperidin-1-yl)phenyl)-5-methyl-1,3,4-oxadiazole-2-carboxamide]
23 | 6.4 | Cn1cccc(C(=O)Nc2cc(C#N)ccc2N2CCC(C(F)(F)c3cc(F)ccc3F)CC2)c1=O [Example 88, N-(5-cyano-2-(4-((2,5-difluorophenyl)difluoromethyl)piperidin-1-yl)phenyl)-1-methyl-2-oxo-1,2-dihydropyridine-3-carboxamide]
24 | 6.5 | N#Cc1ccc(N2CCC(Oc3ccc(F)cc3F)CC2)c(NC(=O)c2ccccc2O)c1 [Example 275, N-(5-cyano-2-(4-(2,4-difluorophenoxy)piperidin-1-yl)phenyl)-2-hydroxybenzamide]
25 | 6.6 | Cn1cccc(C(=O)Nc2cc(C#N)ccc2N2CCC([C@H](F)c3ccc(F)cc3F)CC2)c1=O [Example 84, (S)—N-(5-cyano-2-(4-((2,4-difluorophenyl)fluoromethyl)piperidin-1-yl)phenyl)-1-methyl-2-oxo-1,2-dihydropyridine-3-carboxamide]
26 | 6.4 | N#Cc1cnc(N2CCC(Oc3ccc(F)cc3F)CC2)c(NC(=O)c2cnccc2O)c1 [Example 61]
27 | 6.5 | Cc1cc(C)n(C)c(=O)c1C(=O)Nc1cc(C#N)ccc1N1CCC(Oc2ccc(F)cc2F)CC1 [Example 176, N-(5-cyano-2-(4-(2,4-difluorophenoxy)piperidin-1-yl)phenyl)-1,4,6-trimethyl-2-oxo-1,2-dihydropyridine-3-carboxamide]

same assay, conditions: inhibition of constitutive cAMP activity of GPR6 in CHO-K1 cells; read-out: pEC50, in vitro inhibition of cAMP (converted)

Row | EC50 [nM] | Structure (SMILES)
28 | 100 | N#Cc1cnc(N2CCC(Cc3ccccc3)CC2)c(NC(=O)c2ccccn2)c1 [Example 67, N-(2-(4-benzylpiperidin-1-yl)-5-cyanopyridin-3-yl)picolinamide]
